According to ChEMBL document CHEMBL1140028, “Heterocyclic alpha-helix mimetics for targeting protein-protein interactions” (Bioorg Med Chem Lett, 2007):
The source made the active and inactive calls. The calls are words filed in the database; no cut-off is given here.

The compounds below were run on Bcl-XL (Homo sapiens) (assay: Binding affinity to Bcl-XL by fluorescence polarization assay).

Activity, active:
CC(C)Cc1cc(-c2nc(C(C)C)co2)nnc1-c1nc(C(C)C)co1, CC(C)Cc1cc(C(=O)N2CCC[C@@H](OCc3ccccc3)C2)nnc1-c1nc(C(C)C)co1, CC(C)c1coc(-c2cc(CC3CCCCC3)c(-c3nc(C(C)C)co3)nn2)n1, CCC(C)C1CN(C(=O)c2cc(Cc3ccccc3)c(-c3nc(CC(C)C)co3)nn2)CCN1C (centres undefined)
